Marks after values point to notes of the source that are not given here.
Legend:
[1] = SQUID magnetometer; previously studied MILs, Table 2; cited from earlier work
[2] = reported at 20.0° C.; previously studied MILs, Table 2; cited from earlier work
[3] = Thermal stability, MIL as GC stationary phase with FID; assay type: physicochemical; settings: exponential increase in response beyond 2,000 pA
Experimental: (§1) The thermal stability of MILs was measured from 40 to 350° C. at a ramp rate of 5° C. min^−1 by performing thermogravimetric analysis (TGA) using a NETZSCH STA 449 F1 Jupiter thermal analyzer (Selb, Germany). To further investigate the thermal stability of MILs using a more sensitive technique, the solvents were employed as a gas chromatographic (GC) stationary phase and subjected to an oven temperature program from 40 to 200° C. at a ramp rate of 1° C. min^−1 and decomposition/degradation products detected using an ultra-sensitive flame ionization detector (FID), with all measurements being performed on an Agilent Technologies 7890B gas chromatograph (Santa Clara, CA, USA).
To further investigate the thermal stability of MILs using a more sensitive technique, the solvents were employed as a gas chromatographic (GC) stationary phase and subjected to an oven temperature program from 40 to 200° C. at a ramp rate of 1° C. min^−1 and decomposition/degradation products detected using an ultra-sensitive flame ionization detector (FID).

[4] = Thermal stability by thermogravimetric analysis (TGA); assay type: physicochemical; settings: TGA at 10% weight loss
Experimental: as §1
Volitization/degradation of MILs as a function of temperature were measured using thermogravimetric analysis. The thermal stability of magnetic ionic liquids was measured from 40 to 350° C. at a ramp rate of 5° C. min^−1 by performing thermogravimetric analysis (TGA) using a NETZSCH STA 449 F1 Jupiter thermal analyzer (Selb, Germany).
To investigate the ability of DGE-based MILs to withstand elevated temperatures without undergoing degradation/decomposition, their thermal stabilities were investigated using thermogravimetric analysis (TGA). FIG. 13 through FIG. 27 display thermograms for MILs 1 to 15. The thermogram results are summarized in greater detail in the following paragraphs.

[5] = Viscosity, Brookfield DVI cone and plate viscometer; assay type: physicochemical; settings: 21.7° C.; neat MIL dried 48 hours under vacuum
Experimental: A Brookfield DVI cone and plate viscometer equipped with a CPA-51Z cone spindle was employed to obtain viscosity measurements at […] using approximately 0.5 g of each MIL after extensive drying for 48 hours under vacuum. Viscosity measurements were conducted at 21.7° C. for 15 lanthanide and transition metal MILs examined in this study.
Viscosity measurements were conducted at 21.7° C. for 15 lanthanide and transition metal MILs examined in this study.

[6] = Effective magnetic moment from magnetic susceptibility balance (MSB); assay type: physicochemical; settings: per formula unit
Experimental: Magnetic properties were analyzed using a magnetic susceptibility balance (MSB, Sherwood Scientific, Cambridge, UK) and a Quantum Design Superconducting Quantum Interference Device (SQUID) magnetometer (MPMS XL-7). The magnetic properties of transition metal MILs were further studied using a SQUID magnetometer to confirm their paramagnetic nature as well as if any magnetic transition occurs in the samples.
Magnetic susceptibility (XM) was calculated through Equation (1).
Effective magnetic moment (μeff) was calculated through Equation (2). In Equation (2), T represents the temperature at which the magnetic susceptibility measurements were conducted.
15 MILs incorporating rare-earth and transition metals were examined using a magnetic susceptibility balance (MSB).

[7] = Solubility of MILs in organic solvents and water; assay type: physicochemical
Excerpt: The solubility of lanthanide and transition metal MILs was investigated in popular traditional organic solvents. […]
The solubility of lanthanide and transition metal MILs was investigated in popular traditional organic solvents.

[8] = acetone, chloroform, dichloromethane, acetonitrile, methanol, ethanol, diethyl ether, ethyl acetate, isopropanol at 20% (w/v)
[9] = hexane, heptane, benzene, toluene at 10% (w/v)
[10] = hexane, heptane, benzene, toluene at 20% (w/v)
[11] = twelve organic solvents (without acetonitrile) at 50% (w/v)

| Structure (SMILES) | Effective magnetic moment [1] | Viscosity [2] | Onset of MIL volatilization (° C.)^1 [3] | Onset of MIL volatilization (° C.)^2 [4] | Viscosity (cP) [5] | μeff, effective magnetic moment [6] | Solubility [7, 8] | Solubility [7, 9] | Solubility [7, 10] | Solubility [7, 11] | Solubility ([7]; water at 0.01% (w/v)) | Solubility ([7]; acetonitrile at 50% (w/v)) |
| --- | --- | --- | --- | --- | --- | --- | --- | --- | --- | --- | --- | --- |
| CCCCCCCCCCCCCC[P+](CCCCCC)(CCCCCC)CCCCCC.CCCCCCCCCCCCCC[P+](CCCCCC)(CCCCCC)CCCCCC.[Cl-].[Cl-].[Cl-].[Cl-].[Mn+2] [[P66614]2[MnCl4]] | 5.81^f | 112,300^d |  |  |  |  |  |  |  |  |  |  |
| CCCCCCCCCCCCCC[P+](CCCCCC)(CCCCCC)CCCCCC.CCCCCCCCCCCCCC[P+](CCCCCC)(CCCCCC)CCCCCC.[Cl-].[Cl-].[Cl-].[Cl-].[Co+2] [[P66614]2[CoCl4]] | 4.45^f | 123,500^d |  |  |  |  |  |  |  |  |  |  |
| CCCCCCCCOC(=O)c1ccc(C(=O)OCCCCCCCC)o1.CCCCCCCCOC(=O)c1ccc(C(=O)OCCCCCCCC)o1.CCCCCCCCOC(=O)c1ccc(C(=O)OCCCCCCCC)o1.CCCCCCCCOC(=O)c1ccc(C(=O)OCCCCCCCC)o1.CCCCCCCCOC(=O)c1ccc(C(=O)OCCCCCCCC)o1.CCCCCCCCOC(=O)c1ccc(C(=O)OCCCCCCCC)o1.O=C(C=C([O-])C(F)(F)F)C(F)(F)F.O=C(C=C([O-])C(F)(F)F)C(F)(F)F.O=C(C=C([O-])C(F)(F)F)C(F)(F)F.O=C(C=C([O-])C(F)(F)F)C(F)(F)F.O=C(C=C([O-])C(F)(F)F)C(F)(F)F.O=C(C=C([O-])C(F)(F)F)C(F)(F)F.[Co+2].[Co+2].[Co+2] [compound 10] |  |  | 147 °C | 163.0 °C | 354.7^b cP | 8.27 μB | S^b (soluble in acetone, chloroform, dichloromethane, acetonitrile, methanol, ethanol, diethyl ether, ethyl acetate, and isopropanol at 20% (w/v).) | S^a (soluble in hexane, heptane, benzene, and toluene at 10% (w/v).) | S^c (soluble in hexane, heptane, benzene, and toluene at 20% (w/v).) | S^d (soluble in acetone, chloroform, dichloromethane, methanol, ethanol, diethyl ether, ethyl acetate, isopropanol hexane, heptane, benzene, and toluene at 50% (w/v).) | S^f (insoluble in water at 0.01% (w/v).) |  |
| CCCCCCCCOC(=O)c1ccc(C(=O)OCCCCCCCC)o1.CCCCCCCCOC(=O)c1ccc(C(=O)OCCCCCCCC)o1.CCCCCCCCOC(=O)c1ccc(C(=O)OCCCCCCCC)o1.CCCCCCCCOC(=O)c1ccc(C(=O)OCCCCCCCC)o1.CCCCCCCCOC(=O)c1ccc(C(=O)OCCCCCCCC)o1.CCCCCCCCOC(=O)c1ccc(C(=O)OCCCCCCCC)o1.O=C(C=C([O-])C(F)(F)F)C(F)(F)F.O=C(C=C([O-])C(F)(F)F)C(F)(F)F.O=C(C=C([O-])C(F)(F)F)C(F)(F)F.O=C(C=C([O-])C(F)(F)F)C(F)(F)F.O=C(C=C([O-])C(F)(F)F)C(F)(F)F.O=C(C=C([O-])C(F)(F)F)C(F)(F)F.[Ni+2].[Ni+2].[Ni+2] [compound 11] |  |  | 142 °C | 160.6 °C | 453.5^b cP | 5.51 μB | S^b (soluble in acetone, chloroform, dichloromethane, acetonitrile, methanol, ethanol, diethyl ether, ethyl acetate, and isopropanol at 20% (w/v).) | S^a (soluble in hexane, heptane, benzene, and toluene at 10% (w/v).) | S^c (soluble in hexane, heptane, benzene, and toluene at 20% (w/v).) | S^d (soluble in acetone, chloroform, dichloromethane, methanol, ethanol, diethyl ether, ethyl acetate, isopropanol hexane, heptane, benzene, and toluene at 50% (w/v).) | S^f (insoluble in water at 0.01% (w/v).) |  |
| CCCCCCCCOC(=O)COCC(=O)OCCCCCCCC.CCCCCCCCOC(=O)COCC(=O)OCCCCCCCC.CCCCCCCCOC(=O)COCC(=O)OCCCCCCCC.CCCCCCCCOC(=O)COCC(=O)OCCCCCCCC.CCCCCCCCOC(=O)COCC(=O)OCCCCCCCC.CCCCCCCCOC(=O)COCC(=O)OCCCCCCCC.O=C(C=C([O-])C(F)(F)F)C(F)(F)F.O=C(C=C([O-])C(F)(F)F)C(F)(F)F.O=C(C=C([O-])C(F)(F)F)C(F)(F)F.O=C(C=C([O-])C(F)(F)F)C(F)(F)F.O=C(C=C([O-])C(F)(F)F)C(F)(F)F.O=C(C=C([O-])C(F)(F)F)C(F)(F)F.O=C(C=C([O-])C(F)(F)F)C(F)(F)F.O=C(C=C([O-])C(F)(F)F)C(F)(F)F.[Co+2].[Ho+3].[Ho+3] [compound 15] |  |  | 115 °C | 183.3 °C | 216.4 cP | 15.56 μB | S^b (soluble in acetone, chloroform, dichloromethane, acetonitrile, methanol, ethanol, diethyl ether, ethyl acetate, and isopropanol at 20% (w/v).) | S^a (soluble in hexane, heptane, benzene, and toluene at 10% (w/v).) | S^c (soluble in hexane, heptane, benzene, and toluene at 20% (w/v).) | S^d (soluble in acetone, chloroform, dichloromethane, methanol, ethanol, diethyl ether, ethyl acetate, isopropanol hexane, heptane, benzene, and toluene at 50% (w/v).) | S^f (insoluble in water at 0.01% (w/v).) |  |
| CCCCCCCCOC(=O)COCC(=O)OCCCCCCCC.CCCCCCCCOC(=O)COCC(=O)OCCCCCCCC.CCCCCCCCOC(=O)COCC(=O)OCCCCCCCC.CCCCCCCCOC(=O)COCC(=O)OCCCCCCCC.CCCCCCCCOC(=O)COCC(=O)OCCCCCCCC.CCCCCCCCOC(=O)COCC(=O)OCCCCCCCC.O=C(C=C([O-])C(F)(F)F)C(F)(F)F.O=C(C=C([O-])C(F)(F)F)C(F)(F)F.O=C(C=C([O-])C(F)(F)F)C(F)(F)F.O=C(C=C([O-])C(F)(F)F)C(F)(F)F.O=C(C=C([O-])C(F)(F)F)C(F)(F)F.O=C(C=C([O-])C(F)(F)F)C(F)(F)F.[Mn+2].[Mn+2].[Mn+2] [compound 6] |  |  | 182 °C | 259.1 °C | 96.3 cP | 10.25 μB | S^b (soluble in acetone, chloroform, dichloromethane, acetonitrile, methanol, ethanol, diethyl ether, ethyl acetate, and isopropanol at 20% (w/v).) | S^a (soluble in hexane, heptane, benzene, and toluene at 10% (w/v).) | S^c (soluble in hexane, heptane, benzene, and toluene at 20% (w/v).) | S^d (soluble in acetone, chloroform, dichloromethane, methanol, ethanol, diethyl ether, ethyl acetate, isopropanol hexane, heptane, benzene, and toluene at 50% (w/v).) | S^f (insoluble in water at 0.01% (w/v).) |  |
| CCCCCCOC(=O)COCC(=O)OCCCCCC.CCCCCCOC(=O)COCC(=O)OCCCCCC.CCCCCCOC(=O)COCC(=O)OCCCCCC.CCCCCCOC(=O)COCC(=O)OCCCCCC.CCCCCCOC(=O)COCC(=O)OCCCCCC.CCCCCCOC(=O)COCC(=O)OCCCCCC.O=C(C=C([O-])C(F)(F)F)C(F)(F)F.O=C(C=C([O-])C(F)(F)F)C(F)(F)F.O=C(C=C([O-])C(F)(F)F)C(F)(F)F.O=C(C=C([O-])C(F)(F)F)C(F)(F)F.O=C(C=C([O-])C(F)(F)F)C(F)(F)F.O=C(C=C([O-])C(F)(F)F)C(F)(F)F.[Mn+2].[Mn+2].[Mn+2] [compound 3] |  |  | 168 °C | 256.8 °C | 63.2 cP | 10.42 μB | S^b (soluble in acetone, chloroform, dichloromethane, acetonitrile, methanol, ethanol, diethyl ether, ethyl acetate, and isopropanol at 20% (w/v).) | S^a (soluble in hexane, heptane, benzene, and toluene at 10% (w/v).) | S^c (soluble in hexane, heptane, benzene, and toluene at 20% (w/v).) | S^d (soluble in acetone, chloroform, dichloromethane, methanol, ethanol, diethyl ether, ethyl acetate, isopropanol hexane, heptane, benzene, and toluene at 50% (w/v).) | S^f (insoluble in water at 0.01% (w/v).) | S^e (insoluble in acetonitrile at 50% (w/v).) |
